Experiment [1] addresses T1, NOX2 C-terminal (gp91phox) (Homo sapiens, UniProt P04839).
T1 construct: gene CYBB; C-terminal (cytosolic part), residues 300–580, His-tagged, E. coli
T1 sequence (P04839 300-570): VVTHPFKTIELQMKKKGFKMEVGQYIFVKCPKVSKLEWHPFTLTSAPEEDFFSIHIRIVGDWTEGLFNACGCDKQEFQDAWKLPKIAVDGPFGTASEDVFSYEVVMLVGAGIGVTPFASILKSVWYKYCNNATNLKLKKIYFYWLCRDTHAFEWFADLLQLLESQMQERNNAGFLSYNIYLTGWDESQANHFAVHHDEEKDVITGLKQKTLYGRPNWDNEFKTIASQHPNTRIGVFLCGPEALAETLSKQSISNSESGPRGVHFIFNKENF
Put plainly: fluorescence enhancement titration of the ligand with recombinant protein; also decreased NADPH consumption. The experiment is classed as binding.

The target of experiment [2] is T2, eNOS (Bos taurus, UniProt P29473).
T2 construct: gene NOS3; full length recombinant bovine eNOS, E. coli BL21 (DE3); with calmodulin
T2 sequence (P29473 2-1205): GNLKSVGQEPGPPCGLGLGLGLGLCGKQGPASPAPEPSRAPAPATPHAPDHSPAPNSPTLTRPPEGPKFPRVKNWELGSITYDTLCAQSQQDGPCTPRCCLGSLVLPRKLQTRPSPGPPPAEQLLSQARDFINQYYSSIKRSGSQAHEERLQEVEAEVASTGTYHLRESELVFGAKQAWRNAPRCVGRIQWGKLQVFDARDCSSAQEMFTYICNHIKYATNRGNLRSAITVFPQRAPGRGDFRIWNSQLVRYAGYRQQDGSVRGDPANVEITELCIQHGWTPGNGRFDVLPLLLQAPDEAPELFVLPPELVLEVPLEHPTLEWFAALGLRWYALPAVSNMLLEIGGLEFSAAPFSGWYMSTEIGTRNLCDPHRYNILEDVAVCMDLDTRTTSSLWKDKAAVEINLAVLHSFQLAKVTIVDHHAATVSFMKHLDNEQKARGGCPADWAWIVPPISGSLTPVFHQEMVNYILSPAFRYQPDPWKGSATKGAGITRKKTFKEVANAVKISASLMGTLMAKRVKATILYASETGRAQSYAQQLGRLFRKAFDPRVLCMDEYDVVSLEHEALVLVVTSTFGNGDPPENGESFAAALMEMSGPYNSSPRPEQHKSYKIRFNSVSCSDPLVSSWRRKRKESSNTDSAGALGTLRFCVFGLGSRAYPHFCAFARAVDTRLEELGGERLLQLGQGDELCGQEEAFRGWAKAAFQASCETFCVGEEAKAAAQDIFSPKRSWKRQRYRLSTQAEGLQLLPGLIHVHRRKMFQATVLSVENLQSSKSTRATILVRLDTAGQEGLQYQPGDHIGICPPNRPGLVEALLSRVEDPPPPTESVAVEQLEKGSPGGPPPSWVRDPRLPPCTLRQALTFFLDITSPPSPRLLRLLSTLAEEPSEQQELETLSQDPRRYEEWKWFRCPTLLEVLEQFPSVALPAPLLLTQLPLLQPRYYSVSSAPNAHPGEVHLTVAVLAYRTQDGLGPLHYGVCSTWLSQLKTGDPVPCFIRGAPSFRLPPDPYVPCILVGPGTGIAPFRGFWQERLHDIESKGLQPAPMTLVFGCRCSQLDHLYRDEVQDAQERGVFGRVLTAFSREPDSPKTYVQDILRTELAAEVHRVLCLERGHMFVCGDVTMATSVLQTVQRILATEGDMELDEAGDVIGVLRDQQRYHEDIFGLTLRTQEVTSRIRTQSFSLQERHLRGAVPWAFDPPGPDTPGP
Put plainly: oxyhemoglobin assay for NO formation. The experiment is classed as biochemical.

Experiment [3] addresses T1, NOX2 C-terminal (gp91phox). Put plainly: fluorescence enhancement titration of the ligand with recombinant protein. The format is binding.

By Kd is commonly meant the equilibrium constant for the complex coming apart. As a reminder, the IC50 is the point on the concentration scale where inhibition reaches its midpoint. A high value points to lower potency. For the compound `CCN(CCNC(=O)[C@H]1O[C@@H](n2cnc3c(N)ncnc32)[C@H](OP(=O)(O)O)[C@@H]1O)c1ccc(/C=C/c2ccc([N+](=O)[O-])cc2)cc1` [NS1-2], in experiment [1], the Kd is 0.67 ± 0.11 µM. In addition, the IC50 in experiment [2] was ~30 µM. On to `CCN(CCNC(=O)[C@H]1O[C@@H](n2cnc3c(N)ncnc32)[C@H](O)[C@@H]1OP(=O)(O)O)c1ccc(/C=C/c2ccc([N+](=O)[O-])cc2)cc1` [NS1-3], for which the dissociation constant Kd in experiment [3] came to 1.14 ± 0.09 µM.

The values above are taken from paper PMC8148004, “Distinction between 2′- and 3′-Phosphate Isomers of a Fluorescent NADPH Analogue Led to Strong Inhibition of Cancer Cells Migration” (Antioxidants, 2021).
